Source: patent US20150094294A1, “COMPOUNDS AND METHODS FOR TREATING MALARIA” (Cellceutix Corporation, priority 2012, published 2015)

Experiments:
Type in all cases: cell-based
HepG2 cells = experiment: Cytotoxicity against HepG2 cells
[1] = tested on: P. falciparum 3D7 (chloroquine-sensitive); experiment: Anti-malarial activity, P. falciparum 3D7 culture, 72 hour, DNA content by flow cytometry; conditions: synchronized ring-stage parasites
Method in brief: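 Magnet-synchronized ring-stage parasites in RPMI 1640/Albumax II were plated at 0.5% parasitemia, 4% final hematocrit, with compound added as 2× dilutions (2.5 μM to 20 nM) for 72 h. Fixed, Triton-permeabilized cells were stained with SYTOX Green (5 μM final), and DNA content was measured by flow cytometry to derive IC50.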

3T3 cells = experiment: Cytotoxicity against 3T3 cells
[2] = tested on: P. falciparum DD2 (chloroquine-resistant); experiment: Anti-malarial activity, P. falciparum DD2 culture, 72 hour, DNA content by flow cytometry; conditions: synchronized ring-stage parasites
Method: Numerous compounds were screened in cultures of the malaria parasite P. falciparum 3D7 (chloroquine-sensitive) and DD2 (chloroquine-resistant). The compounds were also screened for toxixcity against 3T3 cells, HepG2 cells, and in a hemolysis assay. In brief, P. falciparum parasites were cultured in RPMI 1640 (Invitrogen) supplemented with Albumax II (Invitrogen). For synchronization, schizont stage parasites were magnet purified using a SuperMACS™ II Cell Separation Unit (Miltenyi Biotech). For IC50 determinations, synchronized ring-stage parasites were plated at 0.5% parasitemia and 8% hematocrit in 96-well plates at a total volume of 50 μL. Serial dilutions of 2× concentration of the respective compound, ranging from 2.5 μM to 20 nM, were added to the wells to bring the total volume up to 100 μL and 4% hematocrit. Compounds were assayed for a 72 hour period, after which the cultures were fixed with a solution of 4% paraformaldehyde and 0.08% glutaraldhyde in PBS. The cells were then permeabilized with 0.25% Triton X-100, and SYTOX Green Nucleic Acid Stain (Invitrogen) in PBS was added to a final concentration of 5 μM. DNA content, as an indicator of parasitemia, was analyzed on an Accuri C6 Flow Cytometer with C-Sampler. IC50 curves were generated using GraphPad Prism (GraphPad Software).

SMILES	EC50 (HepG2 cells) [µM]	IC50 [1] [nM]	EC50 (3T3 cells) [µM]	IC50 [2] [nM]
NCCc1cccc(-c2cnc(-c3cccc(CCN)c3)s2)c1 [Compound 242]	584	> 2000	71	–
NCCc1cccc(-c2ccc(-c3cccc(CCN)c3)cc2)c1 [Compound 235]	156	> 2000	14	–
Cn1c(-c2ccc(CCCN)cc2)cnc1-c1ccc(CCCN)cc1 [Compound 265]	> 1000	> 100	> 1000	–
O=C(Nc1ccc(SCCNC2=NCCN2)c(C(F)(F)F)c1)Nc1ccc(SCCNC2=NCCN2)c(C(F)(F)F)c1 [Compound 268]	447	87	74	–
NCCc1ccccc1-c1ccc(-c2ccccc2CCN)s1 [Compound 249]	46	28	7	–
O=C(Nc1ccc(N2CCNCC2)cc1)c1cccc(C(=O)Nc2ccc(N3CCNCC3)cc2)n1 [Compound 211]	> 1000	> 100	> 1000	–
NCCSc1nc(-c2cccc(CCN)c2)cc(-c2cccc(CCN)c2)n1 [Compound 220]	> 1000	1550	> 1000	–
N=C(N)NCCCOc1cccc(-c2ccc(-c3cccc(OCCCNC(=N)N)c3)s2)c1 [Compound 244]	19	149	20	–
CCN(CC)CCN(CCN)c1c(F)cc(C(F)(F)F)cc1NC(=O)Nc1cc(C(F)(F)F)cc(F)c1N(CCN)CCN(CC)CC [Compound 127]	413	738	132	–
NCCc1cccc(-c2cncc(-c3ccc(-c4cncc(-c5cccc(CCN)c5)c4)cc3)c2)c1 [Compound 234]	> 1000	655	> 1000	–
NCCSc1c(NC(=O)c2cc(C(=O)Nc3cc(C(F)(F)F)cc(NC(=O)c4cccs4)c3SCCN)ncn2)cc(C(F)(F)F)cc1NC(=O)c1cccs1 [Compound 311]	923	> 100	923	–
Cn1c(-c2cccc(CCN)c2)cnc1-c1cccc(CCN)c1 [Compound 245]	> 1000	541	> 1000	–
N=C(N)N1CC[C@@H](Oc2ccc(NC(=O)c3cc(C(=O)Nc4ccc(O[C@@H]5CCN(C(=N)N)C5)c(C(F)(F)F)c4)ncn3)cc2C(F)(F)F)C1 [Compound 190]	41	26	33	–
CCn1c2ccc(C3CCNCC3)cc2c2cc(C3CCNCC3)ccc21 [Compound 283]	284	> 100	153	–
N=C(N)NCCc1ccccc1-c1ccc(-c2ccccc2CCNC(=N)N)s1 [Compound 251]	692	12	559	–
N=C(N)NCCCc1ccc(-c2ccc(-c3ccc(CCCNC(=N)N)cc3)s2)cc1 [Compound 266]	197	59	38	–
N=C(N)NCCCc1cccc(-c2cc(-c3cccc(CCCNC(=N)N)c3)ncn2)c1 [Compound 135]	697	131	623	–
O=C(Nc1ccc(O[C@@H]2CCNC2)c(C(F)(F)F)c1)c1cc(C(=O)Nc2ccc(O[C@@H]3CCNC3)c(C(F)(F)F)c2)ncn1 [Compound 187]	130	41	42	–
NCCCSc1ccc(NC(=O)Nc2ccc(SCCCN)c(C(F)(F)F)c2)cc1C(F)(F)F [Compound 274]	164	> 2000	72	–
N=C(N)NCCCn1c2ccc(C3=CCN(C(=N)N)CC3)cc2c2cc(C3=CCN(C(=N)N)CC3)ccc21 [Compound 289]	425	> 100	248	–
N=C(N)N1CC=C(c2ccc3sc4ccc(C5=CCN(C(=N)N)CC5)cc4c3c2)CC1 [Compound 286]	221	80	83	–
N=C(N)NCCCOc1cc(OCCCNC(=N)N)c(-c2cccc(F)c2)cc1-c1cccc(F)c1 [Compound 138]	85	226	78	–
Cn1c(-c2cccc(CCNC(=N)N)c2)cnc1-c1cccc(CCNC(=N)N)c1 [Compound 246]	> 1000	5	> 1000	–
CCn1c2ccc(N3CCNCC3)cc2c2cc(N3CCNCC3)ccc21 [Compound 293]	> 1000	> 100	469	–

SMILES	EC50 (HepG2 cells) [µM]	IC50 [1] [nM]	EC50 (3T3 cells) [µM]	IC50 [2] [nM]
CCn1c2ccc(C3CCN(C(=N)N)CC3)cc2c2cc(C3CCN(C(=N)N)CC3)ccc21 [Compound 285]	815	86	587	–
N=C(N)NCCc1cccc(-c2ccc(-c3cccc(CCNC(=N)N)c3)o2)c1 [Compound 240]	904	121	461	–
CC(C)(C)c1cc(NC(=O)c2cccc(C#N)c2)c(SCCN)c(NC(=O)c2cc(C(=O)Nc3cc(C(C)(C)C)cc(NC(=O)c4cccc(C#N)c4)c3SCCN)ncn2)c1 [Compound 198]	30	5	7	–
N=C(N)NCCc1cccc(NC(=O)c2cc(C(=O)Nc3cccc(CCNC(=N)N)c3)nc(SCCN)n2)c1 [Compound 182]	345	560	330	–
N=C(N)NCCc1cccc(-c2cncc(-c3ccc(-c4cncc(-c5cccc(CCNC(=N)N)c5)c4)cc3)c2)c1 [Compound 231]	> 1000	369	998	–
NCCCOc1cccc(-c2ccc(-c3cccc(OCCCN)c3)s2)c1 [Compound 241]	38	> 2000	34	–
COc1cc(SCCN)c(C(F)(F)F)cc1NC(=O)Nc1cc(C(F)(F)F)c(SCCN)cc1OC [Compound 277]	64	570	31	–
N=C(N)NCCSc1ccc(NC(=O)Nc2ccc(SCCCN)c(C(F)(F)F)c2)cc1C(F)(F)F [Compound 275]	342	1700	124	–
NCCCOc1cccc(-c2cncc(-c3ccc(-c4cncc(-c5cccc(OCCCN)c5)c4)s3)c2)c1 [Compound 225]	179	461	35	–
N=C(N)NCCCCC(=O)Nc1cc(F)cc(NC(=O)c2cc(C(=O)Nc3cc(F)cc(NC(=O)CCCCNC(=N)N)c3SCCN)ncn2)c1SCCN [Compound 105]	81	225	44	–
CCN(CC)CCN(CCN)c1ccc(C(F)(F)F)cc1NC(=O)Nc1cc(C(F)(F)F)ccc1N(CCN)CCN(CC)CC [Compound 126]	562	660	140	–
Cn1c(-c2ccc(CCCNC(=N)N)cc2)cnc1-c1ccc(CCCNC(=N)N)cc1 [Compound 267]	823	29	651	–
Nc1cccc(NC(=O)c2cc(C(=O)Nc3cccc(N)n3)ncn2)n1 [Compound 189]	> 1000	> 2000	> 1000	–
CCn1c2ccc(C3=CCNCC3)cc2c2cc(C3=CCNCC3)ccc21 [Compound 282]	126	> 100	57	–
CCN(CC)CCN(CCN)c1c(Cl)cc(C(F)(F)F)cc1NC(=O)Nc1cc(C(F)(F)F)cc(Cl)c1N(CCN)CCN(CC)CC [Compound 124]	24	320	20	–
N=C(N)NCCc1cccc(-c2cnc(-c3cccc(CCNC(=N)N)c3)s2)c1 [Compound 243]	723	58	523	–
NCCc1cccc(-c2cncc(-c3ccc(-c4cncc(-c5cccc(CCN)c5)c4)s3)c2)c1 [Compound 223]	82	516	18	–
N=C(N)NCCc1cccc(-c2ccc(-c3cccc(CCNC(=N)N)c3)s2)c1 [Compound 238]	310	109	108	–
O=C(Nc1ccc(OC2CCNC2)c(F)c1)c1cc(C(=O)Nc2ccc(OC3CCNC3)c(F)c2)ncn1 (stereo not shown) [Compound 209]	516	66	431	–
N=C(N)NCCSc1ccc(NC(=O)Nc2ccc(SCCN)c(C(F)(F)F)c2)cc1C(F)(F)F [Compound 130]	–	–	–	976
N=C(N)NCCCOc1cccc(-c2cncc(-c3cccc(OCCCNC(=N)N)c3)c2)c1 [Compound 133]	551	116	295	–
N=C(N)NCCCCCC(=O)Nc1cc(C(F)(F)F)cc(NC(=O)c2cc(C(=O)Nc3cc(C(F)(F)F)cc(NC(=O)CCCCCNC(=N)N)c3SCCN)ncn2)c1SCCN [Compound 106]	89	286	79	–
O=C(Nc1ccc(OC2CCNCC2)cc1)c1cc(C(=O)Nc2ccc(OC3CCNCC3)cc2)ncn1 [Compound 199]	353	10	192	–
N=C(N)N1CCC(Oc2ccc(NC(=O)Nc3ccc(OC4CCN(C(=N)N)C4)c(C(F)(F)F)c3)cc2C(F)(F)F)C1 (stereo not shown) [Compound 271]	347	29	172	–
